According to patent US20250074891A1 (Anaxis Pharma Pty Ltd., priority 2021, published 2025):

How the values were obtained:
Conditions in all cases: Table 35
MLKL (full length) = MLKL (full length) (Homo sapiens (Human), UniProt Q8NB16); experiment: KINOMEscan binding assay, MLKL (full length)
Protocol: (§1) Kinase assays. For most assays, kinase-tagged T7 phage strains were grown in parallel in 24-well blocks in an E. coli host derived from the BL21 strain. E. coli were grown to log-phase and infected with T7 phage from a frozen stock (multiplicity of infection=0.4) and incubated with shaking at 32° C. until lysis (90-150 minutes).
(§2) The Hill Slope was set to −1.

RIP1 = RIP1 (Homo sapiens (Human), UniProt Q13546); experiment: KINOMEscan binding assay, RIP1
RIP3 = RIP3 (Homo sapiens (Human), UniProt Q9Y572); experiment: KINOMEscan binding assay, RIP3
Protocol: as §1, §2

Chain of RIP3 (Q9Y572 whole entry): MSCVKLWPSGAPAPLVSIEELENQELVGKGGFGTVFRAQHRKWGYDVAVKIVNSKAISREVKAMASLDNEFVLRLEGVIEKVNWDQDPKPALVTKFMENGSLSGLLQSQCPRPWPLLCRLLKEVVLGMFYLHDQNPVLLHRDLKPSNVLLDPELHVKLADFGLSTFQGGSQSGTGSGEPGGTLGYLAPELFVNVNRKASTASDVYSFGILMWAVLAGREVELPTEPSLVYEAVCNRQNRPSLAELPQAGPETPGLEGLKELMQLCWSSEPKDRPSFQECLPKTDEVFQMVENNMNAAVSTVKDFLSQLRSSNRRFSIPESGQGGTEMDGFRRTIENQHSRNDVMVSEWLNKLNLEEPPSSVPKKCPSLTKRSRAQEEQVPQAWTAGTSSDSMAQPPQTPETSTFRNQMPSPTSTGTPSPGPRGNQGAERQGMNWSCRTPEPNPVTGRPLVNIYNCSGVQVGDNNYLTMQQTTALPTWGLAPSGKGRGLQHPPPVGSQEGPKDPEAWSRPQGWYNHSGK
Chain of RIP1 (Q13546 whole entry): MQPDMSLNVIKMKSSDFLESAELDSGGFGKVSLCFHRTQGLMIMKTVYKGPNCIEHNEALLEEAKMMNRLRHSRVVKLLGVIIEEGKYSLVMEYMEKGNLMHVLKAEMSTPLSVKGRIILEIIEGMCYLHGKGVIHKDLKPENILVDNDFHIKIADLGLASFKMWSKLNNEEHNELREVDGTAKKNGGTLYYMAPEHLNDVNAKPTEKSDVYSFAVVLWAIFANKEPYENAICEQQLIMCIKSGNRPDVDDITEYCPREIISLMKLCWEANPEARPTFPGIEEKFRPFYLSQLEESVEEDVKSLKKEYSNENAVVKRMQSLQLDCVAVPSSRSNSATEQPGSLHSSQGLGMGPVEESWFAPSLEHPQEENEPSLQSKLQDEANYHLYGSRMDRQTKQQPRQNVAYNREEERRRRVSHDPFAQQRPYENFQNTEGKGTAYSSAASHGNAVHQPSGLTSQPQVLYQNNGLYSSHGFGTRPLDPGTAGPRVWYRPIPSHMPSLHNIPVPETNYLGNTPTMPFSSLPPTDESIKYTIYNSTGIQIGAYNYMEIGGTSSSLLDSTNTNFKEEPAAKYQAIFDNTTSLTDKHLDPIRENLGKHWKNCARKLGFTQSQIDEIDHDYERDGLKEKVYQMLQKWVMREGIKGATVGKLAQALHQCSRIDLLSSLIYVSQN
Chain of MLKL (full length) (Q8NB16 whole entry): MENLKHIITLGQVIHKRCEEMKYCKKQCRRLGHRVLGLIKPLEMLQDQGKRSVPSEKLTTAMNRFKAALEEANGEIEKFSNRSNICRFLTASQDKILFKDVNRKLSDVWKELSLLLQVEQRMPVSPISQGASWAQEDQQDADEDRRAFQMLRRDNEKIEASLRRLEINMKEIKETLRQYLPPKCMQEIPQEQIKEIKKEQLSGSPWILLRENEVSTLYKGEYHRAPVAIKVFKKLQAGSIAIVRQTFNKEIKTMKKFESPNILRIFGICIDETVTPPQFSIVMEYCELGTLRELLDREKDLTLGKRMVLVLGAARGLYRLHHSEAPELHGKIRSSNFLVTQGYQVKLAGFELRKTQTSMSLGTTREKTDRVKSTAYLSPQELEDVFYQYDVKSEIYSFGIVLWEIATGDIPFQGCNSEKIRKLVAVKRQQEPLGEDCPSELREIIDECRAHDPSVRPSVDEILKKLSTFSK

Structure (SMILES)	Kd (MLKL (full length))	Kd (RIP1)	Kd (RIP3)
CCS(=O)(=O)Nc1ccc(-c2n[nH]c(Nc3cncc(OC)n3)c2C(N)=O)cc1OCc1ccc(F)cc1 [Compound 15, 3-(4-(ethylsulfonamido)-3-((4-fluorobenzyl)oxy)phenyl) 5-((6-methoxypyrazin-2-yl)amino)-1H-pyrazole-4-carboxamide]	< 0.01 µM	> 30 µM	> 30 µM
CCS(=O)(=O)Nc1ccc(-c2n[nH]c(Nc3ccnc(C(F)(F)F)c3)c2C(N)=O)cc1 [Compound 104, 3-(4-(ethylsulfonamido)phenyl)-5-((2-(trifluoromethyl)pyridin-4-yl)amino)-1H-pyrazole-4-carboxamide]	< 0.01 µM	> 30 µM	> 30 µM
NC(=O)c1c(-c2ccc(NS(=O)(=O)CC(F)(F)F)c(OCc3ccc(F)c(F)c3)c2)n[nH]c1Nc1ccccn1 [Compound 160, 3-(3-((3,4-difluorobenzyl)oxy)-4-((2,2,2-trifluoroethyl)sulfonamido)phenyl)-5-(pyridine-2-ylamino)-1H-pyrazole-4-carboxamide]	< 0.01 µM	> 30 µM	> 30 µM
CCS(=O)(=O)Nc1ccc(-c2n[nH]c(Nc3ccccn3)c2C(N)=O)cc1OCc1ccc(F)cn1 [Compound 241, 3-{4-ethanesulfonamido-3-[(5-fluoropyridin-2-yl)methoxy]phenyl}-5-[(pyridin-2-yl)amino]-1H-pyrazole-4-carboxamide]	< 0.01 µM	> 30 µM	> 30 µM
CCS(=O)(=O)Nc1ccc(-c2n[nH]c(Nc3cnccn3)c2C(N)=O)cc1OCCc1ccccc1 [Compound 210, 3-(4-(ethylsulfonamido)-3-phenethoxyphenyl)-5-(pyrazin-2-ylamino)-1H-pyrazole-4-carboxamide]	< 0.01 µM	> 30 µM	> 30 µM
Cc1cnc(Nc2[nH]nc(-c3ccc(NS(=O)(=O)CC(F)(F)F)c(O[C@@H](C)c4ccc(F)cc4)c3)c2C(N)=O)cn1 [Compound 264, 3-{3-[(1S)-1-(4-fluorophenyl)ethoxy]-4-(2,2,2-trifluoroethanesulfonamido)phenyl}-5-[(5-methylpyrazin-2-yl)amino]-1H-pyrazole-4-carboxamide]	< 0.01 µM	> 30 µM	> 30 µM
CCS(=O)(=O)Nc1ccc(-c2n[nH]c(Nc3cnccn3)c2C(N)=O)cc1OCCc1ccccc1Cl [Compound 206, 3-(3-(2-chlorophenethoxy)-4-(ethylsulfonamido)phenyl)-5-(pyrazin-2-ylamino)-1H-pyrazole-4-carboxamide]	< 0.01 µM	> 30 µM	> 30 µM
COCCOc1cc(Nc2[nH]nc(-c3ccc(NS(=O)(=O)CC#N)cc3)c2C(N)=O)ccn1 [Compound 110, 3-(4-((cyanomethyl)sulfonamido)phenyl)-5-((2-(2-methoxyethoxy)pyridin-4-yl)amino)-1H-pyrazole-4-carboxamide]	< 0.01 µM	> 30 µM	> 30 µM
C[C@H](Oc1cc(-c2n[nH]c(Nc3cc(C(C)(C)C)no3)c2C(N)=O)ccc1NS(=O)(=O)C(F)F)c1ccc(F)cc1 [Compound 295, (S)-5-((3-(tert-butyl)isoxazol-5-yl)amino)-3-(4-((difluoromethyl)sulfonamido)-3-(1-(4-fluorophenyl)ethoxy)phenyl)-1H-pyrazole-4-carboxamide]	< 0.01 µM	> 30 µM	> 30 µM
NC(=O)c1c(-c2ccc(NS(=O)(=O)CC(F)(F)F)cc2)n[nH]c1Nc1ccc(C(F)(F)F)cn1 [Compound 153, 3-(4-((2,2,2-trifluoroethyl)sulfonamido)phenyl)-5-((5-(trifluoromethyl)pyridine-2-yl)amino)-1H-pyrazole-4-carboxamide]	< 0.01 µM	> 30 µM	> 30 µM
NC(=O)c1c(-c2ccc(NS(=O)(=O)CC(F)(F)F)c(OC(c3ccc(F)cc3)C3CCC3)c2)n[nH]c1Nc1cnccn1 (stereo not drawn) [Compound 266, 3-{3-[cyclobutyl(4-fluorophenyl)methoxy]-4-(2,2,2-trifluoroethanesulfonamido)phenyl}-5-[(pyrazin-2-yl)amino]-1H-pyrazole-4-carboxamide]	< 0.01 µM	> 30 µM	> 30 µM
N#Cc1cccc(Nc2[nH]nc(-c3ccc(NS(=O)(=O)C(F)F)cc3)c2C(N)=O)n1 [Compound 258, 5-[(6-cyanopyridin-2-yl)amino]-3-[4-(difluoromethanesulfonamido)phenyl]-1H-pyrazole-4-carboxamide]	< 0.01 µM	> 30 µM	> 30 µM
NC(=O)c1c(-c2ccc(NS(=O)(=O)C(F)F)cc2)n[nH]c1Nc1cnccn1 [Compound 63, 3-(4-((difluoromethyl)sulfonamido)phenyl)-5-(pyrazin-2-ylamino)-1H-pyrazole-4-carboxamide]	< 0.01 µM	> 30 µM	> 30 µM
NC(=O)c1c(-c2ccc(NS(=O)(=O)CC(F)(F)F)cc2)n[nH]c1Nc1cnccn1 [Compound 137, 5-(pyrazin-2-ylamino)-3-(4-((2,2,2-trifluoroethyl)sulfonamido)phenyl)-1H-pyrazole-4-carboxamide]	< 0.01 µM	> 30 µM	> 30 µM
N#Cc1cccc(Nc2[nH]nc(-c3ccc(NS(=O)(=O)CC(F)(F)F)cc3)c2C(N)=O)n1 [Compound 237, 5-[(6-cyanopyridin-2-yl)amino]-3-[4-(2,2,2-trifluoroethanesulfonamido)phenyl]-1H-pyrazole-4-carboxamide]	< 0.01 µM	> 30 µM	> 30 µM
C[C@H](Oc1cc(-c2n[nH]c(Nc3cnn(C4CCOCC4)c3)c2C(N)=O)ccc1NS(=O)(=O)C(F)F)c1ccc(F)cc1 [Compound 306, (S)-3-(4-((difluoromethyl)sulfonamido)-3-(1-(4-fluorophenyl)ethoxy)phenyl)-5-((1-(tetrahydro-2H-pyran-4-yl)-1H-pyrazol-4-yl)amino)-1H-pyrazole-4-carboxamide]	< 0.01 µM	> 30 µM	> 30 µM
C[C@H](Oc1cc(-c2n[nH]c(Nc3cnccn3)c2C(N)=O)ccc1NS(=O)(=O)CC(F)(F)F)c1ccccn1 [Compound 267, 5-[(pyrazin-2-yl)amino]-3-{3-[(1S)-1-(pyridin-2-yl)ethoxy]-4-(2,2,2-trifluoroethanesulfonamido)phenyl]-1H-pyrazole-4-carboxamide]	< 0.01 µM	> 30 µM	> 30 µM
NC(=O)c1c(-c2ccc(NS(=O)(=O)C(F)F)c(OC3(c4ccc(F)cc4)CC3)c2)n[nH]c1Nc1cnccn1 [Compound 307, 3-(4-((difluoromethyl)sulfonamido)-3-(1-(4-fluorophenyl)cyclopropoxy)phenyl)-5-(pyrazin-2-ylamino)-1H-pyrazole-4-carboxamide]	< 0.01 µM	> 30 µM	> 30 µM
CCS(=O)(=O)Nc1ccc(-c2n[nH]c(Nc3cnccn3)c2C(N)=O)cc1OCC1CCCCC1 [Compound 47, 3-(3-(cyclohexyl-methoxy)-4-(ethylsulfonamido)phenyl)-5-(pyrazin-2-ylamino)-1H-pyrazole-4-carboxamide]	< 0.01 µM	> 30 µM	> 30 µM
C[C@H](Oc1cc(-c2c(C(N)=O)c(Nc3cnccn3)nn2C)ccc1NS(=O)(=O)C(F)F)c1ccc(F)cc1 [Compound 253, 5-[4-(difluoromethanesulfonamido)-3-[(1S)-1-(4-fluorophenyl)ethoxy]phenyl]-1-methyl-3-[(pyrazin-2-yl)amino]-1H-pyrazole-4-carboxamide]	< 0.01 µM	> 30 µM	> 30 µM
Cc1nccc(Nc2[nH]nc(-c3ccc(NS(=O)(=O)C(F)F)c(O[C@@H](C)c4ccc(F)cc4)c3)c2C(N)=O)n1 [Compound 309, (S)-3-(4-((difluoromethyl)sulfonamido)-3-(1-(4-fluorophenyl)ethoxy)phenyl)-5-((2-methylpyrimidin-4-yl)amino)-1H-pyrazole-4-carboxamide]	< 0.01 µM	> 30 µM	> 30 µM
CCS(=O)(=O)Nc1ccc(-c2n[nH]c(Nc3cnc(C(F)(F)F)cn3)c2C(N)=O)cc1 [Compound 75, 3-(4-ethanesulfonamidophenyl)-5-{[5-(trifluoromethyl)pyrazin-2-yl]amino}-1H-pyrazole-4-carboxamide]	< 0.01 µM	> 30 µM	> 30 µM
CCS(=O)(=O)Nc1ccc(-c2n[nH]c(Nc3cccc(C(F)(F)F)n3)c2C(N)=O)cc1Oc1ccc(F)cc1 [Compound 149, 3-(4-(ethylsulfonamido)-3-(4-fluorophenoxy)phenyl)-5-((6-(trifluoromethyl)pyridine-2-yl)amino)-1H-pyrazole-4-carboxamide]	< 0.01 µM	> 30 µM	> 30 µM
NC(=O)c1c(-c2ccc(NS(=O)(=O)C(F)F)c(OCc3ccc(F)cc3)c2)n[nH]c1Nc1cnccn1 [Compound 202, 3-(4-((difluoromethyl)sulfonamido)-3-((4-fluorobenzyl)oxy)phenyl)-5-(pyrazin-2-ylamino)-1H-pyrazole-4-carboxamide]	< 0.01 µM	> 30 µM	> 30 µM
C[C@H](Oc1cc(-c2n[nH]c(Nc3cc(C(F)F)on3)c2C(N)=O)ccc1NS(=O)(=O)C(F)F)c1ccc(F)cc1 [Compound 314, (S)-5-((5-(difluoromethyl)isoxazol-3-yl)amino)-3-(4-((difluoromethyl)sulfonamido)-3-(1-(4-fluorophenyl)ethoxy)phenyl)-1H-pyrazole-4-carboxamide]	< 0.01 µM	> 30 µM	> 30 µM
CCS(=O)(=O)Nc1ccc(-c2n[nH]c(Nc3cnccn3)c2C(N)=O)cc1OCc1ccc(Cl)c(F)c1 [Compound 166, 3-(3-((4-chloro-3-fluorobenzyl)oxy)-4-(ethylsulfonamido)phenyl)-5-(pyrazin-2-ylamino)-1H-pyrazole-4-carboxamide]	< 0.01 µM	> 30 µM	> 30 µM
